Test results as given in patent US11208405B2, “Pyrrole derivatives as PLK1 inhibitors” (SENTINEL ONCOLOGY LIMITED, priority 2017, dated 2021).
pIC50: −log10 of the molar value. Structures can show the parent of a compound that is named as a salt. Where two headings read alike, the source gives them in different places.

Columns and labels:
hERG ion channel = hERG ion channel (Homo sapiens, UniProt Q12809); test: Binding to the hERG ion channel
cytochrome P450 2C19 = cytochrome P450 2C19 (Homo sapiens, UniProt P33261); test: Cytochrome P450 inhibition, 2C19; format: in vitro ADME
cytochrome P450 3A4 = cytochrome P450 3A4 (Homo sapiens, UniProt P08684); test: Cytochrome P450 inhibition, 3A4; format: in vitro ADME
Chain of cytochrome P450 3A4 (P08684 whole entry): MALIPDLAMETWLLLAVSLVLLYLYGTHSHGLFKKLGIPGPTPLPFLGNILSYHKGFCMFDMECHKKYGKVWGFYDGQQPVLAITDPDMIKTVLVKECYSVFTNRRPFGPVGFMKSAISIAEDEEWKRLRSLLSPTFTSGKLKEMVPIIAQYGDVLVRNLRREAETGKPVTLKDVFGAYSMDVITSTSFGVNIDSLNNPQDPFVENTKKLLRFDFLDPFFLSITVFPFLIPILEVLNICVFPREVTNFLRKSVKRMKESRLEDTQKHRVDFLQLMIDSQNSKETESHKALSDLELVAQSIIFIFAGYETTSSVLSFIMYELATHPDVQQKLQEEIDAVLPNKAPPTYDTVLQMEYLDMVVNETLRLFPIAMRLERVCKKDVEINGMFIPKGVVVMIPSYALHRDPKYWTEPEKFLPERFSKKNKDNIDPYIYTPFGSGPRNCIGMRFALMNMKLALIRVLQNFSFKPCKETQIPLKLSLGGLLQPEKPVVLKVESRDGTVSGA

[1] = Determination of brain exposure following oral dosing in mice; format: in vivo, male CD-1 mice; conditions: male, CD-1, mouse, 10 mg/Kg PO
Description: Determination of Brain Exposure Following Oral Dosing in Mice An experiment was carried out on the compound of Example 33 to determine the extent of its brain penetration following oral dosing in mice. The following protocol was used. 15 male CD-1 mice (n=3/time point) were dosed perorally with the compound of Example 33 (10 mg/kg; dose concentration 1 mg/ml; dose volume 10 mL/kg). […] Animals were housed in pre-assigned housing cages until sampling. Appropriate samples were taken at […] time points and stored immediately at −20° C. Homogenisation and protein precipitation with acetonitrile was carried out for plasma and brain. Analysis was carried out with tandem mass spectrometry using electrospray ionisation. The results of the experiment are shown in FIG. 2 and in Table 10 below.

[2] = system: glioblastoma cell line 907042; test: Glioblastoma cancer cell viability, cell line 907042; format: cell-based
Description: (§1) Assay to Measure the Effects of Compounds of the Invention on Glioblastoma Cancer Cell Viability
(§2) The compound of Example 33 was tested for inhibitory activity against the glioblastoma cell lines in Table 7 below.

[3] = system: glioblastoma cell line 908145; test: Glioblastoma cancer cell viability, cell line 908145; format: cell-based
Description: as §1, §2

[4] = system: glioblastoma cell line 905984; test: Glioblastoma cancer cell viability, cell line 905984; format: cell-based
Description: as §1, §2

[5] = system: glioblastoma cell line 906868; test: Glioblastoma cancer cell viability, cell line 906868; format: cell-based
Description: as §1, §2

[6] = system: glioblastoma cell line 906871; test: Glioblastoma cancer cell viability, cell line 906871; format: cell-based
Description: as §1, §2

[7] = system: glioblastoma cell line 906746; test: Glioblastoma cancer cell viability, cell line 906746; format: cell-based
Description: as §1, §2

[8] = system: glioblastoma cell line 946368; test: Glioblastoma cancer cell viability, cell line 946368; format: cell-based
Description: as §1, §2

[9] = system: glioblastoma cell line 946370; test: Glioblastoma cancer cell viability, cell line 946370; format: cell-based
Description: as §1, §2

AURKA = biological target: T1, AURKA (Homo sapiens, UniProt O14965); test: Kinase selectivity assay (DiscoverX KinomeScreen), AURKA; format: binding; conditions: read-out: % Control
T1 construct: purchased DiscoverX
Description: (§3) The compound of Example 33 was tested for off-target activity against a panel of fifty five kinases bearing functional or structural similarity to PLK1 at a concentration of 5 μM using the DiscoverX KinomeScreen assay.

AURKC = biological target: T2, AURKC (Homo sapiens, UniProt Q9UQB9); test: Kinase selectivity assay (DiscoverX KinomeScreen), AURKC; format: binding; conditions: read-out: % Control
T2 construct: purchased DiscoverX
T2 sequence (Q9UQB9 whole entry): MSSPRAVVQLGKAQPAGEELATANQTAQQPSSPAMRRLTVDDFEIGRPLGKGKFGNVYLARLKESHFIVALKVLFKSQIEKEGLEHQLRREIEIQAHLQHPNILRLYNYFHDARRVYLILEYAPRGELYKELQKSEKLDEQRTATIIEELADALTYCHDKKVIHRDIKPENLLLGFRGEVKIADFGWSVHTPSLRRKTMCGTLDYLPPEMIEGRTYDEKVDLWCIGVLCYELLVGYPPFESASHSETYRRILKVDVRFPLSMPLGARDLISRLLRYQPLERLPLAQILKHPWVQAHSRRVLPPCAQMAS
Description: as §3

EIF2AK1 = biological target: T3, EIF2AK1 (Homo sapiens, UniProt Q9BQI3); test: Kinase selectivity assay (DiscoverX KinomeScreen), EIF2AK1; format: binding; conditions: EIF2AK1, 5 μM; read-out: % Control
T3 construct: purchased DiscoverX
Description: as §3

EIF2AK4 = test: Kinase selectivity assay (DiscoverX KinomeScreen), EIF2AK4; format: binding; conditions: EIF2AK4, 5 μM
Description: as §3

IKBKB = biological target: T4, IKBKB (Homo sapiens, UniProt O14920); test: Kinase selectivity assay (DiscoverX KinomeScreen), IKBKB; format: binding; conditions: read-out: % Control
T4 construct: purchased DiscoverX
Description: as §3

IKBKE = biological target: T5, IKBKE (Homo sapiens, UniProt Q14164); test: Kinase selectivity assay (DiscoverX KinomeScreen), IKBKE; format: binding; conditions: read-out: % Control
T5 construct: purchased DiscoverX
Description: as §3

NEK1 = biological target: T6, NEK1 (Homo sapiens, UniProt Q96PY6); test: Kinase selectivity assay (DiscoverX KinomeScreen), NEK1; format: binding; conditions: NEK1, 5 μM; read-out: % Control
T6 construct: purchased DiscoverX
T6 sequence (Q96PY6 whole entry): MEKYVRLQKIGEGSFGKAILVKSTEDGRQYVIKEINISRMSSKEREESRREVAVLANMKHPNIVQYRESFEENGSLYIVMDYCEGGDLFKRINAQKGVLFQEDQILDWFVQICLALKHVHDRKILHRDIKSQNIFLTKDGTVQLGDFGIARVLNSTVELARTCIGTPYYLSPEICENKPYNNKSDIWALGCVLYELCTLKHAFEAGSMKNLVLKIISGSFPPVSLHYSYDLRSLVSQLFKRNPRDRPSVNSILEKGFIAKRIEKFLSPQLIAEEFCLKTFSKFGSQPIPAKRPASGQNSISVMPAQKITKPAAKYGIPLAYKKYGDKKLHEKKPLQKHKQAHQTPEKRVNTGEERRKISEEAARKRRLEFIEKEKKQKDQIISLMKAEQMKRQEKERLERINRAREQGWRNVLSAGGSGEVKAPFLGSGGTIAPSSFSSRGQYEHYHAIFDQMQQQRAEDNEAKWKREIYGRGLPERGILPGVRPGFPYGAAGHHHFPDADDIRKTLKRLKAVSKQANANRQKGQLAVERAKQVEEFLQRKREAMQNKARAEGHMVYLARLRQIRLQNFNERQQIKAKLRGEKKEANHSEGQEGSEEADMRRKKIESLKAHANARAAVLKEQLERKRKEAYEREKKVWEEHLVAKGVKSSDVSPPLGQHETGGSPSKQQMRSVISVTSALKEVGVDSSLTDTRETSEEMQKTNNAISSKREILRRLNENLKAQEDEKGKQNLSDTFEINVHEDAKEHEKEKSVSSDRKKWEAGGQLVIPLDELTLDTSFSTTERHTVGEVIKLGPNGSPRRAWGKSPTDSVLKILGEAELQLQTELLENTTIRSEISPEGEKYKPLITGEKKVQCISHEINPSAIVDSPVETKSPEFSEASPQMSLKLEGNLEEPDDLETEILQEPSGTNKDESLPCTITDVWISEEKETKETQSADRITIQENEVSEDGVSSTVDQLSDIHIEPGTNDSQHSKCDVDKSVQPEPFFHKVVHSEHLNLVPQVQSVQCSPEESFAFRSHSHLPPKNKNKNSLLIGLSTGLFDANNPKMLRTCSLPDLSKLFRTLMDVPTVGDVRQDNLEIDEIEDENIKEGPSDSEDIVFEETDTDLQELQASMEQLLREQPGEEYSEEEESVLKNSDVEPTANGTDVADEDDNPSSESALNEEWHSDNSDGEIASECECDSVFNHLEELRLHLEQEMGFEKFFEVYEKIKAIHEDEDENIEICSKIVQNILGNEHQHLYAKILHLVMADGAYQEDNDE
Description: as §3

NEK11 = biological target: T7, NEK11 (Homo sapiens, UniProt Q8NG66); test: Kinase selectivity assay (DiscoverX KinomeScreen), NEK11; format: binding; conditions: NEK11, 5 μM; read-out: % Control
T7 construct: purchased DiscoverX
T7 sequence (Q8NG66 whole entry): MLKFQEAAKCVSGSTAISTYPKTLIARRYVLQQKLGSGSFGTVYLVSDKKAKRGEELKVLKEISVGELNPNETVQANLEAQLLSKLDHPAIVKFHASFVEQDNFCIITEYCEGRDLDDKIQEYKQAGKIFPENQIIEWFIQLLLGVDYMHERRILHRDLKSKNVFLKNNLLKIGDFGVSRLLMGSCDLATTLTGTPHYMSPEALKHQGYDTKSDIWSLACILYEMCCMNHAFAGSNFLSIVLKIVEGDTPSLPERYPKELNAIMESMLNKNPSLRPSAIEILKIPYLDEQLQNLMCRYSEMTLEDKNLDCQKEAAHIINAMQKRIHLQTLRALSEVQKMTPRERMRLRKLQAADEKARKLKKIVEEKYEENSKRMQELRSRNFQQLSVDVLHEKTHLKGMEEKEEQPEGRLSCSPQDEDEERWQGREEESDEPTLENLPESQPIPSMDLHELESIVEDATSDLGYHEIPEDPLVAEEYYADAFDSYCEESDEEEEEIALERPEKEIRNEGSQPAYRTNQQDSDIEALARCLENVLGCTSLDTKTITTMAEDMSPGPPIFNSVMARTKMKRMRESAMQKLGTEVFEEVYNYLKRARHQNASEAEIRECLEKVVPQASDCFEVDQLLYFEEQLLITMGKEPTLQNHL
Description: as §3

NEK2 = biological target: T8, NEK2 (Homo sapiens, UniProt P51955); test: Kinase selectivity assay (DiscoverX KinomeScreen), NEK2; format: binding; conditions: NEK2, 5 μM; read-out: % Control
T8 construct: purchased DiscoverX
Description: as §3

NEK4 = biological target: T9, NEK4 (Homo sapiens, UniProt P51957); test: Kinase selectivity assay (DiscoverX KinomeScreen), NEK4; format: binding; conditions: NEK4, 5 μM; read-out: % Control
T9 construct: purchased DiscoverX
Description: as §3

PLK1 = biological target: T10, PLK1 (Homo sapiens, UniProt P53350); test: Kinase selectivity assay (DiscoverX KinomeScreen), PLK1; format: binding; conditions: PLK1, 5 μM; read-out: % Control
T10 construct: purchased DiscoverX
Description: as §3

PLK2 = biological target: T11, PLK2 (Homo sapiens, UniProt Q9NYY3); test: Kinase selectivity assay (DiscoverX KinomeScreen), PLK2; format: binding; conditions: PLK2, 5 μM; read-out: % Control
T11 construct: purchased DiscoverX
T11 sequence (Q9NYY3 whole entry): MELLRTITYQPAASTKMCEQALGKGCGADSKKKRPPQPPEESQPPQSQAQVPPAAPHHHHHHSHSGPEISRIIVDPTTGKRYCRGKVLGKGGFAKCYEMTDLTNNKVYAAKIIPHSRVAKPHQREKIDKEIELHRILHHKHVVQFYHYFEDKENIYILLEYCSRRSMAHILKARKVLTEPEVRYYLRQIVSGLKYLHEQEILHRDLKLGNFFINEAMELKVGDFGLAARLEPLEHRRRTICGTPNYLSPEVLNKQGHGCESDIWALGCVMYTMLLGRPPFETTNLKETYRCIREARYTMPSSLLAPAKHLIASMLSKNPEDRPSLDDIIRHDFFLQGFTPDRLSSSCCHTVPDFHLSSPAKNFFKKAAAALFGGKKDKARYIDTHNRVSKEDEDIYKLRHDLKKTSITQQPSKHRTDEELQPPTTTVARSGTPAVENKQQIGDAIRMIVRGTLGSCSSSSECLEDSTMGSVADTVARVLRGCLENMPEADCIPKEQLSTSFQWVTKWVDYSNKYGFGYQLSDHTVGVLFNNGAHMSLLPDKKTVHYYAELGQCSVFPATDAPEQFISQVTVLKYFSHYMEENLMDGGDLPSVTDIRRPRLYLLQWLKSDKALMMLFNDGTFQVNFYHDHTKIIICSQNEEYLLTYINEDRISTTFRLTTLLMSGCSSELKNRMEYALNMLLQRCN
Description: as §3

PLK3 = biological target: T12, PLK3 (Homo sapiens, UniProt Q9H4B4); test: Kinase selectivity assay (DiscoverX KinomeScreen), PLK3; format: binding; conditions: PLK3, 5 μM; read-out: % Control
T12 construct: purchased DiscoverX
T12 sequence (Q9H4B4 whole entry): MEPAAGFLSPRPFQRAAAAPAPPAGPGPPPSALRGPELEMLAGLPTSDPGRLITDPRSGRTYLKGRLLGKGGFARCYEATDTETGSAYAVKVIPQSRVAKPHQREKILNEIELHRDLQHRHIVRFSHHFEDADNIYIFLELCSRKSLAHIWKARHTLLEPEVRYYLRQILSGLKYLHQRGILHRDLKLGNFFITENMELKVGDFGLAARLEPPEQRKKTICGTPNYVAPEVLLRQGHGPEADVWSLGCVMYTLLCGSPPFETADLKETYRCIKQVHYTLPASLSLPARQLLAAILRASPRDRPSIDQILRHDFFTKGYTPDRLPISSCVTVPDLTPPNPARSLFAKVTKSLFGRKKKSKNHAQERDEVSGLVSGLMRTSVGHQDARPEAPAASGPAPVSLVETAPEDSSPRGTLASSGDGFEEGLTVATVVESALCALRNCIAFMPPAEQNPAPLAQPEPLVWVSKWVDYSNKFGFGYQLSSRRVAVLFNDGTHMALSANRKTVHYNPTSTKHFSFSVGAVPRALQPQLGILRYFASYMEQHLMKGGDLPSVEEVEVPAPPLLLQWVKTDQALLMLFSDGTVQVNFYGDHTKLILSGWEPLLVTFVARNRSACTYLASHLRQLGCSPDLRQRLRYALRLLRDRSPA
Description: as §3

PLK4 = biological target: T13, PLK4 (Homo sapiens, UniProt O00444); test: Kinase selectivity assay (DiscoverX KinomeScreen), PLK4; format: binding; conditions: PLK4, 5 μM; read-out: % Control
T13 construct: purchased DiscoverX
Description: as §3

STK16 = biological target: T14, STK16 (Homo sapiens, UniProt O75716); test: Kinase selectivity assay (DiscoverX KinomeScreen), STK16; format: binding; conditions: STK16, 5 μM; read-out: % Control
T14 construct: purchased DiscoverX
Description: as §3

STK36 = biological target: T15, STK36 (Homo sapiens, UniProt Q9NRP7); test: Kinase selectivity assay (DiscoverX KinomeScreen), STK36; format: binding; conditions: STK36, 5 μM; read-out: % Control
T15 construct: purchased DiscoverX
Description: as §3

TBK1 = biological target: T16, TBK1 (Homo sapiens, UniProt Q9UHD2); test: Kinase selectivity assay (DiscoverX KinomeScreen), TBK1; format: binding; conditions: TBK1, 5 μM; read-out: % Control
T16 construct: purchased DiscoverX
Description: as §3

TLK1 = biological target: T17, TLK1 (Homo sapiens, UniProt Q9UKI8); test: Kinase selectivity assay (DiscoverX KinomeScreen), TLK1; format: binding; conditions: TLK1, 5 μM; read-out: % Control
T17 construct: purchased DiscoverX
T17 sequence (Q9UKI8 whole entry): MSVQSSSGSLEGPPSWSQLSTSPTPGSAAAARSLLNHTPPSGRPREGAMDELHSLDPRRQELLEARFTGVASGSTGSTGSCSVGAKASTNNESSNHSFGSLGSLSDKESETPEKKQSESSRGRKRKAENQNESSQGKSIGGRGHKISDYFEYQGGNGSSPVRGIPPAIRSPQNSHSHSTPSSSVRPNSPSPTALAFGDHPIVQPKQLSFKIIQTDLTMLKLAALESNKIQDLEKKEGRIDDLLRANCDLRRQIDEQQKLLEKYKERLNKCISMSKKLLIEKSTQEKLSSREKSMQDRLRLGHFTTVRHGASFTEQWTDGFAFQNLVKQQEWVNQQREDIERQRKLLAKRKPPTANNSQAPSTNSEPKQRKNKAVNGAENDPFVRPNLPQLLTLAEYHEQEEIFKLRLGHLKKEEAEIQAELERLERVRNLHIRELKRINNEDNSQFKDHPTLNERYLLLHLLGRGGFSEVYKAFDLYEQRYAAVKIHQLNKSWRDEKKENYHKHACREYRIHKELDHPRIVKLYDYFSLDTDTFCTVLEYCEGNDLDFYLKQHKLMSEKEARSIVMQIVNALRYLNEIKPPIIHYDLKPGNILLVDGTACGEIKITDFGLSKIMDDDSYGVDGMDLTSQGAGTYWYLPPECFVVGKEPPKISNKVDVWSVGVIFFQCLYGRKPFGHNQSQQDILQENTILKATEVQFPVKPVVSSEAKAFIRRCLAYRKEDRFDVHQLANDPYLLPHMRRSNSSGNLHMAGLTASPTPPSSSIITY
Description: as §3

ULK1 = biological target: T18, ULK1 (Homo sapiens, UniProt O75385); test: Kinase selectivity assay (DiscoverX KinomeScreen), ULK1; format: binding; conditions: ULK1, 5 μM; read-out: % Control
T18 construct: purchased DiscoverX
Description: as §3

WNK2 = biological target: T19, WNK2 (Homo sapiens, UniProt Q9Y3S1); test: Kinase selectivity assay (DiscoverX KinomeScreen), WNK2; format: binding; conditions: WNK2, 5 μM; read-out: % Control
T19 construct: purchased DiscoverX
Description: as §3

WNK4 = biological target: T20, WNK4 (Homo sapiens, UniProt Q96J92); test: Kinase selectivity assay (DiscoverX KinomeScreen), WNK4; format: binding; conditions: WNK4, 5 μM; read-out: % Control
T20 construct: purchased DiscoverX
Description: as §3

Compound: CN(C)CCNC(=O)c1ccc(-c2ccc(-c3ccc(Cl)cc3)n2-c2ccccc2C(F)(F)F)cc1 [Example 33, 4-[5-(4-chlorophenyl)-1-[2-(trifluoromethyl)phenyl]pyrrol-2-yl]-N-[2-(dimethylamino)ethyl]benzamide Hydrochloride]
- binding to the hERG ion channel (hERG ion channel): > 25 µM
- cytochrome P450 inhibition 2C19 (cytochrome P450 2C19): > 10 µM
- cytochrome P450 inhibition 3A4 (cytochrome P450 3A4): > 10 µM
- AUC(0-t) ([1]; brain, read-out: AUClast (Brain)): 31900 ng·h/mL
- Tmax ([1]; brain, read-out: Tmax (Brain)): 24 h
- AUC(0-t) ([1]; plasma, read-out: AUClast (Plasma)): 5030 ng·h/mL
- Tmax ([1]; plasma, read-out: Tmax (Plasma)): 8 h
- pIC50 [2]: 7.15
- pIC50 [3]: 6.65
- pIC50 [4]: 6.62
- pIC50 [5]: 6.60
- pIC50 [6]: 6.55
- pIC50 [7]: 6.37
- pIC50 [8]: 5.85
- pIC50 [9]: 5.78
- remaining activity at 5 µM (AURKA): 83%
- remaining activity at 5 µM (AURKC): 85%
- remaining activity at 5 µM (EIF2AK1): 98%
- % Control (EIF2AK4): 97%
- remaining activity at 5 µM (IKBKB): 100%
- remaining activity at 5 µM (IKBKE): 75%
- remaining activity at 5 µM (NEK1): 100%
- remaining activity at 5 µM (NEK11): 100%
- remaining activity at 5 µM (NEK2): 94%
- remaining activity at 5 µM (NEK4): 100%
- remaining activity at 5 µM (PLK1): 100%
- remaining activity at 5 µM (PLK2): 85%
- remaining activity at 5 µM (PLK3): 74%
- remaining activity at 5 µM (PLK4): 90%
- remaining activity at 5 µM (STK16): 92%
- remaining activity at 5 µM (STK36): 91%
- remaining activity at 5 µM (TBK1): 80%
- remaining activity at 5 µM (TLK1): 99%
- remaining activity at 5 µM (ULK1): 84%
- remaining activity at 5 µM (WNK2): 100%
- remaining activity at 5 µM (WNK4): 91%
